In one test the target is EGFR (Homo sapiens (Human), UniProt P00533). Description: ErbB Enzyme Assay (HTRF KinEASE-TK), Assay 3. The test is classed as biochemical. On the procedure:
The kinases were incubated with 250 nM TK-substrate biotin (CisBio, part of cat #62TKOPEC) at 1 mM ATP along with test compounds in a buffer consisting of 25 mM HEPES, pH 7.4, 10 mM MgCl2, 0.01% Triton X-100, and 2% DMSO in a volume of 8 μL. […] After 30-minute incubation at 22° C., the reaction was quenched by adding 8 μL of quench solution containing 62.5 nM Sa-XL665 and 0.25×TK-Ab-Cryptate in HTRF detection buffer (all from CisBio, part of cat #62TKOPEC). […] A 4-parameter logistic curve was fit to the POC values as a function of the concentration of compound, and the IC50 value was the point where the best-fit curve crossed 50 POC.
Background: TR-FRET usually uses a lanthanide donor and a delayed reading to cut background.

Another test has as its target EGFR wild type (EGFR WT) (Homo sapiens (Human), UniProt P00533). Description: Cellular Phosphorylation Assay, Assay 5 (EGF-stimulated EGFR phosphorylation, NIH 3T3 cells). Type of test: cell-based. Here is the method: (§1) NIH 3T3 cells were engineered to express ErbB2 with Exon 20 YVMA insertion (HER2-YVMA (SEQ ID NO: 2); Assay 4) or EGFR wild type (EGFR WT; Assay 5) with constructs obtained from GenScript and grown in DMEM supplemented with 10% fetal bovine serum and 15 μg/ml blasticidin. […] Serially diluted compounds were added to the plates for 1 hour at 37° C./5% CO2. EGFR WT cells were stimulated with 100 ng/ml rEGF for an additional 10 minutes at 37° C./5% CO2.
(§2) After compound incubation, medium was removed from the cells, which were then fixed in 3.7% formaldehyde in PBS at room temperature for 20 minutes. Following a wash with PBS, cells were permeabilized with 100% methanol at room temperature for 10 minutes. Cells were then washed with PBS/0.05% Tween-20 and blocked with Odyssey blocking buffer (LI-COR Biosciences) for at least 1 hour at room temperature. Antibodies to phosphorylated ErbB2 (Y1196, Cell Signaling #6942) or phosphorylated EGFR (Y1068, Cell Signaling #3777) and GAPDH (Millipore #MAB374) were added to the cells in blocking buffer containing 0.05% azide and incubated overnight at 4° C. After washing with PBS/0.05% Tween-20, the cells were incubated with fluorescently labeled secondary anti-rabbit antibody (LiCOR, IRDye 800CW #926-32211) and anti-mouse antibody (Molecular Probes, Alexa Fluor 680 #A21058) for 1 hour at room temperature in the dark. Cells were then washed and analyzed for fluorescence at both wavelengths using the Odyssey Infrared Imaging System (LI-COR Biosciences). Phosphorylated ErbB2 and EGFR signal was normalized to GAPDH signal to generate curves and calculate IC50 values.

The target in the next test is ErbB2 WT (Homo sapiens (Human), UniProt P04626). Description: ErbB Enzyme Assay (HTRF KinEASE-TK), Assay 2. Type of test: biochemical. To be noted: ErbB2 WT enzyme. Here is the method:
The kinases were incubated with 250 nM TK-substrate biotin (CisBio, part of cat #62TKOPEC) at 1 mM ATP along with test compounds in a buffer consisting of 25 mM HEPES, pH 7.4, 10 mM MgCl2, 0.01% Triton X-100, and 2% DMSO in a volume of 8 μL. […] After 30-minute incubation at 22° C., the reaction was quenched by adding 8 μL of quench solution containing 62.5 nM Sa-XL665 and 0.25×TK-Ab-Cryptate in HTRF detection buffer (all from CisBio, part of cat #62TKOPEC).

Test [1] concerns the target ErbB2 with Exon 20 YVMA insertion (HER2-YVMA) (Homo sapiens (Human), UniProt P04626, INS775YVMA). Description: Cellular Phosphorylation Assay, Assay 4 (constitutive ErbB2 phosphorylation, NIH 3T3 cells). The note with it: ErbB2 YVMA phosphorylation. The test is classed as cell-based. Here is the method:
as §1, §2

[2] abbreviates: EGF-stimulated EGFR WT phosphorylation.
Setting [3] is: cellular EGFR WT phosphorylation, EGF-stimulated.

Chain of ErbB2 WT (P04626 23-1255): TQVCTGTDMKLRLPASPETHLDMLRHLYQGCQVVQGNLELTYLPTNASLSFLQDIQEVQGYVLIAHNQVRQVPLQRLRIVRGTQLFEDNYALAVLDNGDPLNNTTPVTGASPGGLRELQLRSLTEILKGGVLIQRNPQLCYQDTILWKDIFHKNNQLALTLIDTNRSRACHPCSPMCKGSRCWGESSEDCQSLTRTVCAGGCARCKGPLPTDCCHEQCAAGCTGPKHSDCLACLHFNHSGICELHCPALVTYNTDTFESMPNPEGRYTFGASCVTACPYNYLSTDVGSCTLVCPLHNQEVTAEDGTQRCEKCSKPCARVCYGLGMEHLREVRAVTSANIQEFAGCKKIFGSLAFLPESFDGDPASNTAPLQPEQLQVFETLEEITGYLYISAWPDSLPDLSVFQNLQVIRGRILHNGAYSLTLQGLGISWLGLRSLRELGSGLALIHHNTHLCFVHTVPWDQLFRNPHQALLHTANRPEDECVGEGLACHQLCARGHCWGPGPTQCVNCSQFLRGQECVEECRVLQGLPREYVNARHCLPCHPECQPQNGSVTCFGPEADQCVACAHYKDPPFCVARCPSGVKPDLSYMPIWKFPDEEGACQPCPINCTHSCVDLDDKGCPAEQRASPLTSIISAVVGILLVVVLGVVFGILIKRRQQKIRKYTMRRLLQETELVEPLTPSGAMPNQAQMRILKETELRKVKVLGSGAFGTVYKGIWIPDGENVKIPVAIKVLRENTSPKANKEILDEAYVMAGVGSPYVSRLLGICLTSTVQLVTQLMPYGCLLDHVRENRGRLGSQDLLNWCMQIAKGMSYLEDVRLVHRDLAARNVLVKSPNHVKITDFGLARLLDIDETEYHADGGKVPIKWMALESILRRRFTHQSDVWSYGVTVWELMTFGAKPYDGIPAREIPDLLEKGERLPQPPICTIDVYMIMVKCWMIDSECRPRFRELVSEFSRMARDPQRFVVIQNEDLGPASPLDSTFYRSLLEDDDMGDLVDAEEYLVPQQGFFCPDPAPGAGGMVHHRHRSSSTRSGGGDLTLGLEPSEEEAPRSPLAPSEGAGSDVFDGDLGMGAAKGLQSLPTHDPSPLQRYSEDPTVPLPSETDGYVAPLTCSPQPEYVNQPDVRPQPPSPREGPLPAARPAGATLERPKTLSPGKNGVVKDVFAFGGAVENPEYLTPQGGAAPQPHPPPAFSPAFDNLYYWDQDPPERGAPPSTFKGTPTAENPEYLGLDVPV
Chain of EGFR (P00533 25-1210): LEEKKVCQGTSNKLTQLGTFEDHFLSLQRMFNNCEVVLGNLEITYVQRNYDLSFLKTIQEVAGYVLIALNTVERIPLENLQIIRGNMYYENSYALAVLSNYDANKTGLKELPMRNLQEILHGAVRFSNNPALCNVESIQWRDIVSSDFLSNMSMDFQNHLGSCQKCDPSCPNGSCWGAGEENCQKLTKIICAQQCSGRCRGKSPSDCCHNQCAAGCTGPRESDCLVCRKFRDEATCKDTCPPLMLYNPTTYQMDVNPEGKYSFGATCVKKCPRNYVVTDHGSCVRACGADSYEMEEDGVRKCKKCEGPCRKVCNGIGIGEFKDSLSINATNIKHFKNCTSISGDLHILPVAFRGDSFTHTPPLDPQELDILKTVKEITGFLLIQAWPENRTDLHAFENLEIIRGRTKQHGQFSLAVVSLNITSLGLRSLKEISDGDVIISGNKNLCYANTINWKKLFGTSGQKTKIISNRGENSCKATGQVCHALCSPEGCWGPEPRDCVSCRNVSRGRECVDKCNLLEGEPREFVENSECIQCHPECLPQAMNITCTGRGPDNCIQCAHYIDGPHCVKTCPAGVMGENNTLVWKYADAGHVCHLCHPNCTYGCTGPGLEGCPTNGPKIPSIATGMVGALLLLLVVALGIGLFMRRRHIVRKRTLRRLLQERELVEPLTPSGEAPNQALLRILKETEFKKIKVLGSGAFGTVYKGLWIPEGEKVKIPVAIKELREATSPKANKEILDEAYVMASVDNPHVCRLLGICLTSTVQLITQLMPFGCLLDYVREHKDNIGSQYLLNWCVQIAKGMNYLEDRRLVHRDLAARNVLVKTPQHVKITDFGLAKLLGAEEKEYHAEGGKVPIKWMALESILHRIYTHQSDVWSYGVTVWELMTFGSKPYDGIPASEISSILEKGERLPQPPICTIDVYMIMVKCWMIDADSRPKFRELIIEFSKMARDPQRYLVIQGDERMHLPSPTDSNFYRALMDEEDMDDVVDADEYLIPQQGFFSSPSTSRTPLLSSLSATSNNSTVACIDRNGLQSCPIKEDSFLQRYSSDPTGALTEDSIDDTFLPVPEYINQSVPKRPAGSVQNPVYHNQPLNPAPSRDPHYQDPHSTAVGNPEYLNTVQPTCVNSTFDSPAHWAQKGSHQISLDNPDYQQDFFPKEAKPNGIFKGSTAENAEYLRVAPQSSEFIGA
Chain of EGFR wild type (EGFR WT) (P00533 25-1210): as above
Chain of ErbB2 with Exon 20 YVMA insertion (HER2-YVMA) (P04626 other isoform, or with tags, fused parts or gaps ins YVMA behind 775): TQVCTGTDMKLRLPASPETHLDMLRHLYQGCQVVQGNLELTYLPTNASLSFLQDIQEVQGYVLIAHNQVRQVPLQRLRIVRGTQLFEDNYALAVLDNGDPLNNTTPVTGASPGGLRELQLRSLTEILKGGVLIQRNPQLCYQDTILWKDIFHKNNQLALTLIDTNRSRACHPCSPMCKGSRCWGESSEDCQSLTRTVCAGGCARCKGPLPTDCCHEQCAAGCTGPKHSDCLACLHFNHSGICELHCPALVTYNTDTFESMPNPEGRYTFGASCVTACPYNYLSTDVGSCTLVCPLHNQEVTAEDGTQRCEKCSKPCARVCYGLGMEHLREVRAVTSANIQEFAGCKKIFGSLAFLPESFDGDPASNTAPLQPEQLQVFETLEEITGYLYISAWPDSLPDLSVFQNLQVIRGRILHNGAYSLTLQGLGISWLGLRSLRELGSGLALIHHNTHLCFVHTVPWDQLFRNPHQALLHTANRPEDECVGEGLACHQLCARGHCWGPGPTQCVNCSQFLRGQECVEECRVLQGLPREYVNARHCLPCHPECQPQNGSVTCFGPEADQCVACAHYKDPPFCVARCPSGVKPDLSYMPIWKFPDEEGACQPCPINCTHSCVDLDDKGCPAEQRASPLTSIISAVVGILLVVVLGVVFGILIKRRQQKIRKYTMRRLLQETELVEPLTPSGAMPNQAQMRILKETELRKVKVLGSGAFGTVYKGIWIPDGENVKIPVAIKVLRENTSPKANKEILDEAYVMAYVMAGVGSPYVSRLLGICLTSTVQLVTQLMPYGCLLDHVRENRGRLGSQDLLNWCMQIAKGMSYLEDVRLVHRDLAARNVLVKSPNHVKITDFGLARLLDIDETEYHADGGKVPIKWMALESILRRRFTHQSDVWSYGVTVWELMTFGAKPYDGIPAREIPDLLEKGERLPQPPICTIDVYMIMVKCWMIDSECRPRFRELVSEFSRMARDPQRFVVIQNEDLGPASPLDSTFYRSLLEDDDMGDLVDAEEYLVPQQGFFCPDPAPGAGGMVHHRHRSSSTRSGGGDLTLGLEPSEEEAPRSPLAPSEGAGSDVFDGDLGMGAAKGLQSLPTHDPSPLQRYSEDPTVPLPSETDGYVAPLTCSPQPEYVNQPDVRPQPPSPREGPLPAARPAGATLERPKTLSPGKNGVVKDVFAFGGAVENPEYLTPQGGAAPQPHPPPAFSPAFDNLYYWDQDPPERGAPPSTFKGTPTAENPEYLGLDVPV

Broadly, the IC50 is the concentration that gives 50% inhibition. A high value points to a need for much substance. In the case of `C=CC(=O)N1CC[C@H]2CN(c3ccc4ncnc(Nc5ccc(Oc6ccc7c(c6)ncn7C)c(C)c5)c4n3)C[C@H]21` (racemic) [Example 104, rac-1-((3aR,6aR)-5-(4-((3-methyl-4-((1-methyl-1H-benzo[d]imidazol-5-yl)oxy)phenyl)amino)pyrido[3,2-d]pyrimidin-6-yl)hexahydropyrrolo[3,4-b]pyrrol-1(2H)-yl)prop-2-en-1-one], the IC50 on EGFR (EGFR enzyme) was ≥ 10 µM; against EGFR wild type (EGFR WT) (setting [2]) it was ≥ 5 µM.

For `C=CC(=O)N1C[C@H]2CC[C@@H]1C[C@@H]2c1ccc2ncnc(Nc3cc(C)c(Oc4ccn5ncnc5c4)cc3F)c2n1` (racemic) [Example 216, rac-1-((1R,4S,5S)-5-(4-((4-([1,2,4]triazolo[1,5-a]pyridin-7-yloxy)-2-fluoro-5-methylphenyl)amino)pyrido[3,2-d]pyrimidin-6-yl)-2-azabicyclo[2.2.2]octan-2-yl)prop-2-en-1-one], the IC50 on EGFR (EGFR enzyme) was 5 µM; against EGFR wild type (EGFR WT) (setting [2]), ≥ 5 µM.

With `C=CC(=O)N1CCC(Oc2ccc3ncnc(Nc4ccc(Oc5ccc6sc(C)nc6c5)c(C)c4)c3n2)CC1` [Example 7, 1-(4-((4-((3-methyl-4-((2-methylbenzo[d]thiazol-5-yl)oxy)phenyl)amino)pyrido[3,2-d]pyrimidin-6-yl)oxy)piperidin-1-yl)prop-2-en-1-one], the IC50 was 2090 nM on ErbB2 WT and ≥ 10 µM at EGFR (EGFR enzyme).

For `C=CC(=O)N1CCC(Oc2ccc3ncnc(Nc4ccc(Oc5ccc6sc(C)nc6c5)c(C)c4F)c3n2)CC1` [Example 10, 1-(4-((4-((2-fluoro-3-methyl-4-((2-methylbenzo[d]thiazol-5-yl)oxy)phenyl)amino)pyrido[3,2-d]pyrimidin-6-yl)oxy)piperidin-1-yl)prop-2-en-1-one], the IC50 against ErbB2 WT is 2400 nM; at EGFR (EGFR enzyme), ≥ 10 µM.

Consider `C=CC(=O)N1CCC(Oc2ccc3ncnc(Nc4ccc(Oc5ccc6sc(C)nc6c5)c(Cl)c4F)c3n2)CC1` [Example 16, 1-(4-((4-((3-chloro-2-fluoro-4-((2-methylbenzo[d]thiazol-5-yl)oxy)phenyl)amino)pyrido[3,2-d]pyrimidin-6-yl)oxy)piperidin-1-yl)prop-2-en-1-one], for which the IC50 was 10000 nM on ErbB2 WT and ≥ 10 µM at EGFR (EGFR enzyme).

`C=CC(=O)Nc1ccc2ncnc(Nc3ccc(Oc4ccc5c(c4)ncn5C)c(C)c3)c2n1` [Example 18, N-(4-((3-methyl-4-((1-methyl-1H-benzo[d]imidazol-5-yl)oxy)phenyl)amino)pyrido[3,2-d]pyrimidin-6-yl)acrylamide]: the results for the IC50 (on ErbB2 WT; against EGFR (EGFR enzyme); in test [1]) were 42.3 nM, 0.369 µM and 443 nM, respectively.

For the molecule `C=CC(=O)N1CC[C@H]2CN(c3ccc4ncnc(Nc5ccc(Oc6ccn7ncnc7c6)c(C)c5F)c4n3)C[C@H]21` [Example 50, 1-((3aS,6aS)-5-(4-((4-([1,2,4]triazolo[1,5-a]pyridin-7-yloxy)-2-fluoro-3-methylphenyl)amino)pyrido[3,2-d]pyrimidin-6-yl)hexahydropyrrolo[3,4-b]pyrrol-1(2H)-yl)prop-2-en-1-one], the IC50 against EGFR (EGFR enzyme) was ≥ 10 µM; against EGFR wild type (EGFR WT) (setting [2]), 3.22 µM.

As for `C=CC(=O)N1CCC(Oc2ccc3ncnc(Nc4ccc(Oc5cnc6cn(C)nc6c5)c(C)c4F)c3n2)CC1` [Example 58, 1-(4-((4-((2-fluoro-3-methyl-4-((2-methyl-2H-pyrazolo[4,3-b]pyridin-6-yl)oxy)phenyl)amino)pyrido[3,2-d]pyrimidin-6-yl)oxy)piperidin-1-yl)prop-2-en-1-one], the IC50 at EGFR (EGFR enzyme) was ≥ 10 µM; against EGFR wild type (EGFR WT) (setting [2]), 2.23 µM.

With `C=CC(=O)N1CC[C@@H]2CN(c3ccc4ncnc(Nc5ccc(Oc6ccn7ncnc7c6)c(C)c5F)c4n3)C[C@@H]21` [Example 71, 1-((3aR,6aR)-5-(4-((4-([1,2,4]triazolo[1,5-a]pyridin-7-yloxy)-2-fluoro-3-methylphenyl)amino)pyrido[3,2-d]pyrimidin-6-yl)hexahydropyrrolo[3,4-b]pyrrol-1(2H)-yl)prop-2-en-1-one], the IC50 was ≥ 10 µM against EGFR (EGFR enzyme) and ≥ 5 µM against EGFR wild type (EGFR WT) (setting [2]).

Consider `C=CC(=O)N1CC[C@@H]2CN(c3ccc4ncnc(Nc5ccc(Oc6ccc7c(c6)ncn7C)c(C)c5)c4n3)C[C@@H]21` [Example 111, 1-((3aR,6aR)-5-(4-((3-methyl-4-((1-methyl-1H-benzo[d]imidazol-5-yl)oxy)phenyl)amino)pyrido[3,2-d]pyrimidin-6-yl)hexahydropyrrolo[3,4-b]pyrrol-1(2H)-yl)prop-2-en-1-one], for which the IC50 against EGFR (EGFR enzyme) was ≥ 10 µM; on EGFR wild type (EGFR WT) (setting [2]), ≥ 5 µM.

`C=CC(=O)N1CC[C@H]2CN(c3ccc4ncnc(Nc5ccc(Oc6ccc7c(c6)ncn7C)c(C)c5)c4n3)C[C@H]21` [Example 117, 1-((3aS,6aS)-5-(4-((3-methyl-4-((1-methyl-1H-benzo[d]imidazol-5-yl)oxy)phenyl)amino)pyrido[3,2-d]pyrimidin-6-yl)hexahydropyrrolo[3,4-b]pyrrol-1(2H)-yl)prop-2-en-1-one]: the values for the IC50 at EGFR (EGFR enzyme) and on EGFR wild type (EGFR WT) (setting [2]) were ≥ 10 µM and ≥ 5 µM, respectively.

With `C=CC(=O)N1C2COCC1CC(c1ccc3ncnc(Nc4ccc(Oc5ccc6c(c5)ncn6C)c(C)c4F)c3n1)C2` (centres unmarked) [Example 161, 1-(7-(4-((2-fluoro-3-methyl-4-((1-methyl-1H-benzo[d]imidazol-5-yl)oxy)phenyl)amino)pyrido[3,2-d]pyrimidin-6-yl)-3-oxa-9-azabicyclo[3.3.1]nonan-9-yl)prop-2-en-1-one], the values for the IC50 against ErbB2 WT, against EGFR (EGFR enzyme) and at EGFR wild type (EGFR WT) (setting [2]) were 19.9 nM, 0.57 µM and 0.368 µM, respectively.

As to `CC#CC(=O)N1CCN(c2ccc3ncnc(Nc4ccc(Oc5ccn6ncnc6c5)c(C)c4F)c3n2)C[C@H]1C` [Example 184, (R)-1-(4-(4-((4-([1,2,4]triazolo[1,5-a]pyridin-7-yloxy)-2-fluoro-3-methylphenyl)amino)pyrido[3,2-d]pyrimidin-6-yl)-2-methylpiperazin-1-yl)but-2-yn-1-one], the IC50 is ≥ 10 µM at EGFR (EGFR enzyme) and ≥ 5 µM against EGFR wild type (EGFR WT) (setting [2]).

As to `C=CC(=O)N1[C@H](C)CN(c2ccc3ncnc(Nc4ccc(Oc5ccn6ncnc6c5)c(C)c4F)c3n2)C[C@@H]1C` [Example 264], the IC50 is 6.67 µM on EGFR (EGFR enzyme assay) and 4.55 µM on EGFR wild type (EGFR WT) (setting [3]).

Turning to `C=CC(=O)N1CCN(c2ccc3ncnc(Nc4ccc(Oc5ccn6ncnc6c5)c(C)c4F)c3n2)C[C@@H]1CC` [Example 269], the results for the IC50 against EGFR (EGFR enzyme assay) and on EGFR wild type (EGFR WT) (setting [3]) were 8.2 µM and ≥ 5 µM, respectively.

For `C=CC(=O)N1CCN(c2ccc3ncnc(Nc4ccc(Oc5ccn6ncnc6c5)c(C)c4F)c3n2)C[C@H]1CC` [Example 274], the IC50 on EGFR (EGFR enzyme assay) was determined as 2.35 µM; on EGFR wild type (EGFR WT) (setting [3]), 0.681 µM.

As to `C=CC(=O)N1CCC12CN(c1ccc3ncnc(Nc4ccc(Oc5ccn6ncnc6c5)c(C)c4F)c3n1)C2` [Example 275], the IC50 turned out to be 0.895 µM against EGFR (EGFR enzyme assay) and 0.526 µM on EGFR wild type (EGFR WT) (setting [3]).

As for `C=CC(=O)N1CC2(C1)CN(c1ccc3ncnc(Nc4cc(Cl)c(Oc5ccn6ncnc6c5)cc4F)c3n1)C2` [Example 342], the IC50 was ≥ 10 µM at EGFR (EGFR enzyme assay) and ≥ 5 µM against EGFR wild type (EGFR WT) (setting [3]).

Regarding `C=CC(=O)N1C[C@H]2CC[C@@H]1[C@H](c1ccc3ncnc(Nc4cc(C)c(Oc5ccn6ncnc6c5)cc4F)c3n1)C2` [Example 395], the results for the IC50 at EGFR (EGFR enzyme assay) and on EGFR wild type (EGFR WT) (setting [3]) were ≥ 10 µM and ≥ 5 µM, respectively.

For the molecule `C=CC(=O)N1C[C@H]2CC[C@@H]1[C@@H](c1ccc3ncnc(Nc4cc(C)c(Oc5ccn6ncnc6c5)cc4F)c3n1)C2` [Example 396], the IC50 is 4.06 µM at EGFR (EGFR enzyme assay) and ≥ 5 µM on EGFR wild type (EGFR WT) (setting [3]).

Consider `C=CC(=O)N1C[C@H]2CC[C@@H]1C[C@H]2c1ccc2ncnc(Nc3cc(C)c(Oc4ccn5ncnc5c4)cc3F)c2n1` [Example 402], for which the figures for the IC50 at EGFR (EGFR enzyme assay) and on EGFR wild type (EGFR WT) (setting [3]) were 4.94 µM and ≥ 5 µM, respectively.

The values are drawn from patent publication US12447153B2, “HER2 mutation inhibitors” (Array BioPharma Inc., priority 2021, dated 2025).
